biological target: T1, IC-GPCR2 (Homo sapiens, UniProt Q8TDV5, S309L); test: Stimulation of cAMP in CHO cells stably expressing IC-GPCR2 (HTRF cAMP assay); format: cell-based; set-up: key to Activity at 10 uM: *: no activity observed when tested at 10 micromolar but no higher concentrations were tested; conditions: 0.5 h, 30 minutes, IC-GPCR2 stably expressing CHO cells, read-out: Activity at 10 uM (% change in FRET signal from DMSO control)
T1 construct: expressed in transfected cells
T1 sequence (Q8TDV5 1-335 S309L): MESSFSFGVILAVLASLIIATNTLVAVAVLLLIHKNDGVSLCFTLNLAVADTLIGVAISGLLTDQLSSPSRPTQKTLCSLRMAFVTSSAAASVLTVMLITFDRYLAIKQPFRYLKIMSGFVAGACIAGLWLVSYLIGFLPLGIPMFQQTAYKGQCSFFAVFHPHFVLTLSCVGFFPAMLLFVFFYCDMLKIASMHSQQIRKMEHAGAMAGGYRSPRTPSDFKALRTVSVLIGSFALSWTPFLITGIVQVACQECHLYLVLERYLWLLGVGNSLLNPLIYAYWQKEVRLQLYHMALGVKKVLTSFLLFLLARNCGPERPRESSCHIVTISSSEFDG
In short: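 CHO cells stably expressing IC-GPCR2, plated at 17500 cells/well, treated next day for 30 min in Ham's F12 with compounds at 6–8 concentrations from 0.00003 to 10 μM; parental CHO cells also screened. Intracellular cAMP read by HTRF competitive immunoassay (665/620 nm ratio). Activity given as % FRET change from DMSO control.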

activation at 10 µM [%]	SMILES
27	CC(C)(C)OC(=O)N1CCC(c2noc(COCc3ccccc3)n2)CC1 [Example 83, 4-(5-Benzyloxymethyl-[1,2,4]oxadiazol-3-yl)-piperidine-1-carboxylic acid tert-butyl ester]
57	CC(C)(C)OC(=O)N1CCC(c2nc(COc3c(F)cc(-n4cnnn4)cc3F)cs2)CC1 [Example 112, 4-[4-(2,6-Difluoro-4-tetrazol-1-yl-phenoxymethyl)-thiazol-2-yl]-piperidine-1-carboxylic acid tert-butyl ester]
71	Clc1cnc(N2CCC(c3nc(COc4ccc(-n5cnnn5)cc4Cl)cs3)CC2)nc1 [Example 165, 5-Chloro-2-{4-[4-(2-chloro-4-tetrazol-1-yl-phenoxymethyl)-thiazol-2-yl]-piperidin-1-yl}-1-pyrimidine]
72	CCc1cnc(N2CCC(c3nc(COc4ccc(S(C)(=O)=O)cc4)co3)CC2)nc1 [Example 123, 5-Ethyl-2-{4-[4-(4-methanesulfonyl-phenoxymethyl)-oxazol-2-yl]-piperidin-1-yl}-pyrimidine]
35	FC(F)(F)c1cnc(N2CCC(c3nc(COc4ccc(-n5cnnn5)cc4)cs3)CC2)c(Cl)c1 [Example 193, 3′-Chloro-4-[4-(4-tetrazol-1-yl-phenoxymethyl)-thiazol-2-yl]-5′-trifluoromethyl-3,4,5,6-tetrahydro-2H-[1,2′]bipyridinyl]
73	C[C@H]1CN(C(=O)OC(C)(C)C)CC[C@H]1c1nc(COc2ccc(-n3cnnn3)cc2F)cs1 (stereo in doubt) [Example 145, 4-[4-(2-Fluoro-4-tetrazol-1-yl-phenoxymethyl)-thiazol-2-yl]-3-methyl-piperidine-1-carboxylic acid tert-butyl ester]
44	CC(C)(C)OC(=O)N1CC(c2nc(COc3ccc(-n4cnnn4)cc3)cs2)C1 [Example 101, 3-[4-(4-tetrazol-1-yl-phenoxymethyl)-thiazol-2-yl]-azetidine-1-carboxylic acid tert-butyl ester]
28	CC(C)(C)OC(=O)N1CCN(c2nc(COc3ccc(S(C)(=O)=O)cc3)cs2)CC1 [Example 91, 4-[4-(4-Methanesulfonyl-phenoxymethyl)-thiazol-2-yl]-piperazine-1-carboxylic acid tert-butyl ester]
68	CC(C)(C)OC(=O)N1CCC(c2nc(CNc3ccc(-n4cnnn4)cc3)cs2)CC1 [Example 114, 4-{4-[(4-Tetrazol-1-yl-phenylamino)-methyl]-thiazol-2-yl}-piperidine-1-carboxylic acid tert-butyl ester]
69	CC(C)(C)OC(=O)N1CCC(c2nc(COc3ccc(S(C)(=O)=O)cc3)cs2)CC1 [Example 1, 4-[4-(4-Methanesulfonyl-phenoxymethyl)-thiazol-2-yl]-piperidine-1-carboxylic acid tert-butyl ester]
48	CC(C)(C)OC(=O)N1CCC(c2nc(CNc3ccc(F)nc3)cs2)CC1 [Example 94, 4-{4-[(6-Fluoro-pyridin-3-ylamino)-methyl]-thiazol-2-yl}-piperidine-1-carboxylic acid tert-butyl ester]
44	O=C(CN1CCC(c2nc(COc3ccc(-n4cnnn4)cc3)cs2)CC1)c1ccc(OC(F)(F)F)cc1 [Example 153, 2-{4-[4-(4-Tetrazol-1-yl-phenoxymethyl)-thiazol-2-yl]-piperidin-1-yl}-1-(4-trifluoromethoxy-phenyl)-ethanone]
80	Clc1ccc(N2CCC(c3nc(COc4ccc(-n5cnnn5)cc4)cs3)CC2)nn1 [Example 186, 3-Chloro-6-{4-[4-(4-tetrazol-1-yl-phenoxymethyl)-thiazol-2-yl]-piperidin-1-yl}-pyridazine]
79	CC(C)c1cnc(N2CCC(c3nc(COc4ccc(-n5cnnn5)cc4F)cs3)CC2)nc1 [Example 162, 2-{4-[4-(2-Fluoro-4-tetrazol-1-yl-phenoxymethyl)-thiazol-2-yl]-piperidin-1-yl}-5-isopropyl-pyrimidine]
85	CCc1cnc(N2CCC(c3nc(COc4ccc(-n5cnnn5)cc4)co3)CC2)nc1 [Example 169, 5-Ethyl-2-{4-[4-(4-tetrazol-1-yl-phenoxymethyl)-oxazol-2-yl]-piperidin-1-yl}-pyrimidine]
59	CC(C)(C)OC(=O)N1CCC(c2nc(COc3ccc(S(C)(=O)=O)cc3)no2)CC1 [Example 81, 4-[3-(4-Methanesulfonyl-phenoxymethyl)-[1,2,4]oxadiazol-5-yl]-piperidine-1-carboxylic acid tert-butyl ester]
76	CC(C)(C)OC(=O)N1CCC(c2nc(COc3ccc(-n4cnnn4)cc3F)co2)CC1 [Example 122, 4-[4-(2-Fluoro-4-tetrazol-1-yl-phenoxymethyl)-oxazol-2-yl]-piperidine-1-carboxylic acid tert-butyl ester]
78	O=Cc1ccc(N2CCC(c3nc(COc4ccc(-n5cnnn5)cc4)cs3)CC2)nc1 [Example 72, 4-[4-(4-Tetrazol-1-yl-phenoxymethyl)-thiazol-2-yl]-3,4,5,6-tetrahydro-2H-[1,2′]bipyridinyl-5′-carbaldehyde]
15	COC(=O)c1cc(Cl)cnc1N1CCC(c2nc(COc3ccc(-n4cnnn4)cc3)cs2)CC1 [Example 198, 5′-Chloro-4-[4-(4-tetrazol-1-yl-phenoxymethyl)-thiazol-2-yl]-3,4,5,6-tetrahydro-2H-[1,2′]bipyridinyl-3′-carboxylic acid methyl ester]
62	CC(C)(C)OC(=O)N1CCC(c2nc(COc3ccc(Br)cc3)cs2)CC1 [Example 140, 4-[4-(4-Bromo-phenoxymethyl)-thiazol-2-yl]-piperidine-1-carboxylic acid tert-butyl ester]
37	CS(=O)(=O)c1ccc(OCc2csc(C3CCN(C(=O)OCc4ccccc4)CC3)n2)cc1 [Example 23, 4-[4-(4-Methanesulfonyl-phenoxymethyl)-thiazol-2-yl]-piperidine-1-carboxylic acid benzyl ester]
58	Brc1cnc(N2CCC(c3nc(COc4ccc(-n5cnnn5)cc4)cs3)CC2)nc1 [Example 54, 5-Bromo-2-{4-[4-(4-tetrazol-1-yl-phenoxymethyl)-thiazol-2-yl]-piperidin-1-yl}-pyrimidine]
58	CC(C)COC(=O)N1CCC(c2nc(COc3ccc(S(C)(=O)=O)cc3)cs2)CC1 [Example 24, 4-[4-(4-Methanesulfonyl-phenoxymethyl)-thiazol-2-yl]-piperidine-1-carboxylic acid isobutyl ester]
68	CC(C)(C)OC(=O)N1CCC(c2nc(COc3ccc(N4CCCC4=O)cc3)cs2)CC1 [Example 6, 4-{4-[4-(2-Oxo-pyrrolidin-1-yl)-phenoxymethyl]-thiazol-2-yl}-piperidine-1-carboxylic acid tert-butyl ester]
78	FC(F)(F)c1noc(N2CCC(c3nc(COc4ccc(-n5cnnn5)cc4)cs3)CC2)n1 [Example 98, 4-[4-(4-Tetrazol-1-yl-phenoxymethyl)-thiazol-2-yl]-1-(3-trifluoromethyl-[1,2,4]oxadiazol-5-yl)-piperidine]
63	CC(=O)Nc1ccc(OCc2csc(C3CCN(C(=O)OC(C)(C)C)CC3)n2)cc1 [Example 3, 4-[4-(4-Acetylamino-phenoxymethyl)-thiazol-2-yl]-piperidine-1-carboxylic acid tert-butyl ester]

same assay, conditions: symbol entry

Activity at 10 uM	SMILES
*	CCOC(=O)c1cnc(N2CCC(c3nc(COc4ccc(-n5cnnn5)cc4)cs3)CC2)c(Cl)c1 [Example 197, 3′-Chloro-4-[4-(4-tetrazol-1-yl-phenoxymethyl)-thiazol-2-yl]-3,4,5,6-tetrahydro-2H-[1,2′]bipyridinyl-5′-carboxylic acid ethyl ester]

From patent US9925189B2, “Heterocyclic receptor agonists for the treatment of diabetes and metabolic disorders” (CymaBay Therapeutics, Inc., priority 2006, dated 2018)
